The supplement of paper PMC8960247
Counter-ions that a name gives are not always drawn. ± gives the standard error.

Test system: 621-102 (TSC2-deficient)
Test: relative viability vs DMSO; higher = less cytotoxic
Details: 0.0001 µM; serum: 10% FBS; 72 h
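Further: immortalized renal angiomyolipoma cells stably carrying empty vector or TSC2, dosed in 384-well plates in DMEM, viability normalized to vehicle-treated wells within each plate.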

Question: With `CCN1CCN(C(=O)Cc2ccc(Nc3ncc(F)c(Nc4ccc(C(=O)Nc5ccccc5Cl)cc4)n3)cc2)CC1` [Aurora A Inhibitor I] as the compound, how does the relative viability read?
Answer: 105.83 ± 0.089%

Question: How did the relative viability turn out when `CC(C)c1cc(C(C)C)c(CC(=O)NS(=O)(=O)Oc2c(C(C)C)cccc2C(C)C)c(C(C)C)c1` [Avasimibe (CI-1011)] was run?
Answer: 106.2 ± 1%

Question: `CNC(=O)c1ccccc1Sc1ccc2c(/C=C/c3ccccn3)n[nH]c2c1` [Axitinib] was tested. Which relative viability did it give?
Answer: 102 ± 3.9%

Question: For `CN1CCCC(n2nc(Cc3ccc(Cl)cc3)c3ccccc3c2=O)CC1` (configuration not stated) [Azelastine HCl (Astelin)], which relative viability is on record?
Answer: 111 ± 0.65%

Question: For `CNC(=O)c1cc(Oc2ccc(NC(=O)Nc3ccc(Cl)c(C(F)(F)F)c3)c(F)c2)ccn1` [BAY 73-4506 (Regorafenib)], which relative viability is on record?
Answer: 109 ± 1.5%

Question: `CC[C@@H]1C(=O)N(C)c2cnc(Nc3ccc(C(=O)N[C@H]4CC[C@H](N5CCN(CC6CC6)CC5)CC4)cc3OC)nc2N1C(C)C` [BI6727 (Volasertib)] was tested. Which relative viability did it give?
Answer: 96.1 ± 4.3%

Question: For `CC[C@@H]1C(=O)N(C)c2cnc(Nc3ccc(C(=O)NC4CCN(C)CC4)cc3OC)nc2N1C1CCCC1` [BI 2536], which relative viability is on record?
Answer: 98.2 ± 3.1%

Question: With `COC(=O)c1ccc2c(C(=Nc3ccc(N(C)C(=O)CN4CCN(C)CC4)cc3)c3ccccc3)c(O)[nH]c2c1` [BIBF1120 (Vargatef)] as the compound, how does the relative viability read?
Answer: 101 ± 2.6%

Question: Which relative viability does the source give for `C/C(=C\C(=O)Nc1ccccc1C(=O)O)c1ccc2ccccc2c1` [BIBR1532] here?
Answer: 93.51 ± 0.69%

Question: With `Cn1c(CNc2ccc(C(=N)N)cc2)nc2cc(C(=O)N(CCC(=O)O)c3ccccn3)ccc21` [BIBR 953] as the compound, how does the relative viability read?
Answer: 64.4 ± 4.5%

Question: Which relative viability does the source give for `CCCCCCOC(=O)NC(=N)c1ccc(NCc2nc3cc(C(=O)N(CCC(=O)OCC)c4ccccn4)ccc3n2C)cc1` [BIBR-1048] here?
Answer: 78.58 ± 0.35%

Question: `CN(C)C/C=C/C(=O)Nc1cc2c(Nc3ccc(F)c(Cl)c3)ncnc2cc1O[C@H]1CCOC1` [BIBW2992 )Tovok)] was tested. Which relative viability did it give?
Answer: 115 ± 3%

Question: With `COc1c(C)cnc(Cn2cnc3c(Cl)nc(N)nc32)c1C` [BIIB021] as the compound, how does the relative viability read?
Answer: 107 ± 1.3%

Question: How did the relative viability turn out when `Cc1ccc(-n2nc(C(C)(C)C)cc2NC(=O)Nc2ccc(OCCN3CCOCC3)c3ccccc23)cc1` [BIRB 796] was run?
Answer: 104 ± 3.1%

Question: Which relative viability does the source give for `Nc1cc(C(F)(F)F)c(-c2cc(N3CCOCC3)nc(N3CCOCC3)n2)cn1` [BKM120 (NVP-BKM120)] here?
Answer: 97 ± 2%

Question: With `COc1ccccc1N1CCN(CCN2C(=O)CC3(CCCC3)CC2=O)CC1` [BMY 7378] as the compound, how does the relative viability read?
Answer: 104.1 ± 0.41%

Question: How did the relative viability turn out when `CC(C)c1cnn2c(NCc3ccccc3)cc(NCCCCCCN)nc12` [BS-181] was run?
Answer: 112 ± 2.3%

Question: Which relative viability does the source give for `NC(=O)c1ccc(I)c([N+](=O)[O-])c1` [BSI-201] here?
Answer: 136 ± 2.7%

Question: With `O=C(O)[C@H]1O[C@@H](Oc2cc3oc(-c4ccccc4)cc(=O)c3c(O)c2O)[C@H](O)[C@@H](O)[C@@H]1O` [Baicalin] as the compound, how does the relative viability read?
Answer: 97.45 ± 0.88%

Question: `CCOC(=O)[C@H](CCc1ccccc1)N[C@H]1CCc2ccccc2N(CC(=O)O)C1=O` [Benazepril HCl] was tested. Which relative viability did it give?
Answer: 68 ± 2.9%

Question: `NC(CO)C(=O)NNCc1ccc(O)c(O)c1O` (configuration not stated) [Benserazide HCl] was tested. Which relative viability did it give?
Answer: 98.1 ± 5.3%

Question: With `CC(C[N+](C)(C)C)OC(N)=O` (configuration not stated) [Bethanechol chloride] as the compound, how does the relative viability read?
Answer: 103 ± 3.5%

Question: `CC(O)(CS(=O)(=O)c1ccc(F)cc1)C(=O)Nc1ccc(C#N)c(C(F)(F)F)c1` (configuration not stated) [Bicalutamide (Casodex)] was tested. Which relative viability did it give?
Answer: 126 ± 1.3%

Question: For `COc1cc(Nc2c(C#N)cnc3cc(OCCCN4CCN(C)CC4)c(OC)cc23)c(Cl)cc1Cl` [Bosutinib (SKI-606)], which relative viability is on record?
Answer: 94.6 ± 3.7%

Question: Which relative viability does the source give for `CCCCN1CCCCC1C(=O)Nc1c(C)cccc1C` (configuration not stated) [Bupivacaine HCl (marcain)] here?
Answer: 97.4 ± 2.2%

Question: Which relative viability does the source give for `CC[C@H](Nc1ncnc2[nH]cnc12)c1nc2cccc(F)c2c(=O)n1-c1ccccc1` [CAL-101] here?
Answer: 104.38 ± 0.033%

Question: `O=C(O)c1ccc2c(c1)nc(Nc1cccc(Cl)c1)c1ccncc12` [CX-4945] was tested. Which relative viability did it give?
Answer: 95 ± 3.3%

Question: Which relative viability does the source give for `Cc1nc(N)sc1-c1ccnc(Nc2ccc(N3CCOCC3)cc2)n1` [CYC116] here?
Answer: 90.7 ± 2.7%

Same assay, conditions: 0.001 µM; serum: 10% FBS; 72 h

Question: For `CCN1CCN(C(=O)Cc2ccc(Nc3ncc(F)c(Nc4ccc(C(=O)Nc5ccccc5Cl)cc4)n3)cc2)CC1` [Aurora A Inhibitor I], which relative viability is on record?
Answer: 113 ± 3.6%

Question: Which relative viability does the source give for `CC(C)c1cc(C(C)C)c(CC(=O)NS(=O)(=O)Oc2c(C(C)C)cccc2C(C)C)c(C(C)C)c1` [Avasimibe (CI-1011)] here?
Answer: 97.5 ± 2.1%

Question: `CNC(=O)c1ccccc1Sc1ccc2c(/C=C/c3ccccn3)n[nH]c2c1` [Axitinib] was tested. Which relative viability did it give?
Answer: 104 ± 1.7%

Question: With `CN1CCCC(n2nc(Cc3ccc(Cl)cc3)c3ccccc3c2=O)CC1` (configuration not stated) [Azelastine HCl (Astelin)] as the compound, how does the relative viability read?
Answer: 114 ± 4.5%

Question: With `CNC(=O)c1cc(Oc2ccc(NC(=O)Nc3ccc(Cl)c(C(F)(F)F)c3)c(F)c2)ccn1` [BAY 73-4506 (Regorafenib)] as the compound, how does the relative viability read?
Answer: 93.9 ± 5.3%

Question: How did the relative viability turn out when `CC[C@@H]1C(=O)N(C)c2cnc(Nc3ccc(C(=O)N[C@H]4CC[C@H](N5CCN(CC6CC6)CC5)CC4)cc3OC)nc2N1C(C)C` [BI6727 (Volasertib)] was run?
Answer: 72.9 ± 4.5%

Question: Which relative viability does the source give for `CC[C@@H]1C(=O)N(C)c2cnc(Nc3ccc(C(=O)NC4CCN(C)CC4)cc3OC)nc2N1C1CCCC1` [BI 2536] here?
Answer: 80.3 ± 1.5%

Question: Which relative viability does the source give for `COC(=O)c1ccc2c(C(=Nc3ccc(N(C)C(=O)CN4CCN(C)CC4)cc3)c3ccccc3)c(O)[nH]c2c1` [BIBF1120 (Vargatef)] here?
Answer: 111 ± 5.3%

Question: How did the relative viability turn out when `C/C(=C\C(=O)Nc1ccccc1C(=O)O)c1ccc2ccccc2c1` [BIBR1532] was run?
Answer: 98.3 ± 0.93%

Question: With `Cn1c(CNc2ccc(C(=N)N)cc2)nc2cc(C(=O)N(CCC(=O)O)c3ccccn3)ccc21` [BIBR 953] as the compound, how does the relative viability read?
Answer: 77.2 ± 5.6%

Question: How did the relative viability turn out when `CCCCCCOC(=O)NC(=N)c1ccc(NCc2nc3cc(C(=O)N(CCC(=O)OCC)c4ccccn4)ccc3n2C)cc1` [BIBR-1048] was run?
Answer: 83.8 ± 4.3%

Question: `CN(C)C/C=C/C(=O)Nc1cc2c(Nc3ccc(F)c(Cl)c3)ncnc2cc1O[C@H]1CCOC1` [BIBW2992 )Tovok)] was tested. Which relative viability did it give?
Answer: 108.3 ± 0.98%

Question: How did the relative viability turn out when `COc1c(C)cnc(Cn2cnc3c(Cl)nc(N)nc32)c1C` [BIIB021] was run?
Answer: 120 ± 2.2%

Question: For `Cc1ccc(-n2nc(C(C)(C)C)cc2NC(=O)Nc2ccc(OCCN3CCOCC3)c3ccccc23)cc1` [BIRB 796], which relative viability is on record?
Answer: 107 ± 3.4%
